# How the values were obtained:
# human TLR8 = biological target: T1, human TLR8 (Homo sapiens, UniProt Q9NR97); test: TLR8 cellular reporter assay (HEK293, NFκB-luc); assay type: cell-based; conditions: HEK293 cells transfected with CMV-TLR8 and NFκB-luc, 6 hours incubation; lowest effective concentration
# T1 construct: expressed in transfected cells; host or cells: HEK293 cells, transient transfection with TLR8 plasmid and NFκB-luc plasmid
# T1 sequence (Q9NR97 27-1041): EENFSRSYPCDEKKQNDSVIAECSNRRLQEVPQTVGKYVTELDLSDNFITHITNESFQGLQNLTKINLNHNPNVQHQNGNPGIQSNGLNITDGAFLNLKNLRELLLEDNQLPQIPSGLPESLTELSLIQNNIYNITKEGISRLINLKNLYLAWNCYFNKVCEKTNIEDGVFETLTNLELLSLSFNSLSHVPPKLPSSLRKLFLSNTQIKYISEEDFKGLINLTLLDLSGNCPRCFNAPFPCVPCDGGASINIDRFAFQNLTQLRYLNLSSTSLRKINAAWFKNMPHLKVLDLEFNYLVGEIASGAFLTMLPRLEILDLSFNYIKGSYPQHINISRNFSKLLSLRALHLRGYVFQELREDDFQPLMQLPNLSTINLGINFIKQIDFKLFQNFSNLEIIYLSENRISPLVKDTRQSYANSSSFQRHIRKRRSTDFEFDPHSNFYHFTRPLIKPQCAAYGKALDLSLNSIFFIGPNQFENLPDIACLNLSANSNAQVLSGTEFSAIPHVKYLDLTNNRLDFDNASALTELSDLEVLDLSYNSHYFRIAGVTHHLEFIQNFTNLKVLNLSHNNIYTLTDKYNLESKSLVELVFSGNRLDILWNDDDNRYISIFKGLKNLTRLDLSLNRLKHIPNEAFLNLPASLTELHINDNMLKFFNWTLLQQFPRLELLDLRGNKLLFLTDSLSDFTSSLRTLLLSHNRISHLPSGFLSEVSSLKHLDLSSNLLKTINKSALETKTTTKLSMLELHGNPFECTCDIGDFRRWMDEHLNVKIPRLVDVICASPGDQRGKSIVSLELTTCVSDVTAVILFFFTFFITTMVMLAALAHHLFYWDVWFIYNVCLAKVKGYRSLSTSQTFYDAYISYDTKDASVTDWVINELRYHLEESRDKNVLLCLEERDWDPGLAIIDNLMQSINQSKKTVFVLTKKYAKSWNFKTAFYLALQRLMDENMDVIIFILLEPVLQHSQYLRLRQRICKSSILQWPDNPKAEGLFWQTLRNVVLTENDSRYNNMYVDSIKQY
# Procedure, shortened: (§1)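 HEK293 cells transiently transfected with receptor expression vector plus NFκB-luciferase reporter, exposed to compound (added in 4% DMSO) for 6 hours at 37° C, 5% CO2. Luciferase activity measured by luminescence; dose-response curves from quadruplicate measurements.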
# human TLR7 = biological target: T2, human TLR7 (Homo sapiens, UniProt Q9NYK1); test: TLR7 cellular reporter assay (HEK293, NFκB-luc); assay type: cell-based; conditions: HEK293 cells transfected with CMV-TLR7 and NFκB-luc, 6 hours incubation; lowest effective concentration
# T2 construct: expressed in transfected cells; host or cells: HEK293 cells, transient transfection with CMV-TLR7 plasmid and NFκB-luc plasmid
# T2 sequence (Q9NYK1 27-1049): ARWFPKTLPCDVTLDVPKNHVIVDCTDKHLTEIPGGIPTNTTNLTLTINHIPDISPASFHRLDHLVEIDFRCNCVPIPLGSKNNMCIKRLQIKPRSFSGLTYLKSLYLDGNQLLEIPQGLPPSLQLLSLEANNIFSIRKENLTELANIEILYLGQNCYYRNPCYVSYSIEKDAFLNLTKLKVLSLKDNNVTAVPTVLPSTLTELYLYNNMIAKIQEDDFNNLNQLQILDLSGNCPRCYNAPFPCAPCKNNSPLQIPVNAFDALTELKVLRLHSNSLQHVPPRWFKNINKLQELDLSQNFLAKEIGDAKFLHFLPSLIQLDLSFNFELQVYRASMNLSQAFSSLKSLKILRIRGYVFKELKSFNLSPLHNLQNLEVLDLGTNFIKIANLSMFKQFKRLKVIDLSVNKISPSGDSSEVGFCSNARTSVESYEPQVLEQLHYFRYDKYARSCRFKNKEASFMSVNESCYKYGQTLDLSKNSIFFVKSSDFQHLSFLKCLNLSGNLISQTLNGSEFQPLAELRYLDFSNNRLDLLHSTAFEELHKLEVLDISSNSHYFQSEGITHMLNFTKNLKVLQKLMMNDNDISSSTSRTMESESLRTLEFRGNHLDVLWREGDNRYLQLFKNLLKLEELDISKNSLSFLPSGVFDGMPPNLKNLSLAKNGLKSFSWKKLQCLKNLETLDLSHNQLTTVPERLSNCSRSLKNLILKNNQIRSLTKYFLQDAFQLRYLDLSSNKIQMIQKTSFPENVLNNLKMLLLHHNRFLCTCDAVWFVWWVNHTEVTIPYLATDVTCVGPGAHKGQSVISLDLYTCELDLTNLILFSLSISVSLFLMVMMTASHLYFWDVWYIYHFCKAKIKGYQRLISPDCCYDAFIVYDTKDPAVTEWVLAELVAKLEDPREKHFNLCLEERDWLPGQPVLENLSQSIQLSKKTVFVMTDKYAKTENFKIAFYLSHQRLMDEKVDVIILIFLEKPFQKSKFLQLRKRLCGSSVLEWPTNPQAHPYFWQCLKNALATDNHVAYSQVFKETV
# Procedure, shortened: as §1
# [1] = tested on: interferon-stimulated responsive elements (ISRE); test: Activation of ISRE promoter elements by conditioned media from PBMC (HEK-ISREluc); assay type: cell-based, human; conditions: Homo sapiens; conditioned media from PBMC transferred to HEK-ISREluc cells, 24 hours; lowest effective concentration; read-out: PBMC LEC
# Procedure, shortened: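 Human PBMCs (≥2 donors, RPMI + 10% human AB serum, 2×10^5 cells/well) incubated overnight with compound; supernatant transferred to HEK293 cells stably carrying pISRE-Luc for 24 h, then luciferase read. LEC = compound concentration on PBMCs giving luciferase signal at least two-fold above assay SD; recombinant IFN-α-2a standard.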
Compound,TLR8 LEC (human TLR8) [µM],TLR7 LEC (human TLR7) [µM],minimal effective concentration [1] [µM]
COc1cc(OC)nc(Cn2ccc3nc(N)nc(NCc4noc(C)n4)c32)n1 [Compound 209],>25,0.04,0.008
COc1cc(OC)nc(Cn2ccc3nc(N)nc(NCc4ncc(C)o4)c32)n1 [Compound 210],>25,0.02,0.003
COC[C@H](C)Nc1nc(N)nc2ccn(Cc3ccccn3)c12 [Compound 211],22,6.94,0.47
COCCn1ccc2nc(N)nc(NC(C)COC)c21 (stereo not drawn) [Compound 212],>25,7.60,2.09
COc1cccnc1Cn1ccc2nc(N)nc(NCc3ncc(C)o3)c21 [Compound 213],>25,<0.01,0.001
COc1ccccc1Cn1ccc2nc(N)nc(NCc3ncc(C)s3)c21 [Compound 215],>25,<0.01,0.001
